In patent US6025343A, “Lipid esters of nucleoside monophosphates and their use as immunosuppressive drugs” (Roche Diagnostics GmbH, priority 1994, dated 2000):
Read-outs that look alike come from different tables or passages of the source.

Columns and labels:
[1] = tested on: murine bone marrow stern cells, colony-forming units/erythrocytes (CFU-E); experiment: CFU-E assay, in vitro cytotoxicity / bone marrow toxicity; format: cell-based; conditions: for IC50: Mus musculus, Erythrocyte
Protocol: (§1) The cytostatic/cytotoxic compound Doxorubicin was also included as reference substance. All compounds were tested in 3-6 different experiments concentration dependently with,at least, doublicate or triplicate inclubations per concentration tested.
(§2) For assay conditions, please refer to description of Example 7.

[2] = tested on: murine bone marrow stern cells, colony-forming units/granulocytes-macrophages (CFU-GM); experiment: CFU-GM assay, in vitro cytotoxicity / bone marrow toxicity; format: cell-based; conditions: for IC50: Mus musculus, in vitro
Protocol: as §1, §2

L 1210 leukemia = experiment: Influence on the L 1210 leukemia in vivo: survival time; design: species or system mice
Protocol: Mice were inoculated with L 1210 leukemia cells on day 0 (n=10 animals/group) and w ere then treated once daily i.p. from day 0 (+1 h)-day +41 (6 weeks) with the weekly cycles indicated on FIGS. 1 and 2, respectively.

[3] = in vitro, mean ± SEM, Example 7, read-out: IC50 CFU-E
[4] = CFU-GM, mean ± SEM, Example 7, read-out: IC50 CFU-GM
[5] = in vitro, mean, Example 10, read-out: Bone marrow toxicity CFU-E, mean IC50
[6] = CFU-GM, mean, Example 10, read-out: Bone marrow toxicity CFU-GM, mean IC50
[7] = 5-FU-DMDOPE compared to 5-FU, table

SMILES | IC50 [1, 3] [ng/mL] | IC50 [2, 4] [µg/mL] | IC50 [1, 5] [nM] | IC50 [2, 6] [nM] | other results
Sc1ncnc2nc[nH]c12 [6-Mercaptopurine, reference compound] | 0.3 | 0.0023 |  |  | 
OC[C@H]1O[C@@H](n2cnc3c(S)ncnc32)[C@H](O)[C@@H]1O [6-Mercaptopurinriboside, reference compound] | 0.3 | 0.0023 |  |  | 
COc1cccc2c1C(=O)c1c(O)c3c(c(O)c1C2=O)C[C@@](O)(C(=O)CO)C[C@@H]3O[C@H]1C[C@H](N)[C@H](O)[C@H](C)O1 [Doxorubicin, reference compound] | 1.7 | 0.05 |  |  | 
O=c1[nH]c(=O)n([C@@H]2O[C@H](CO)[C@@H](O)[C@H]2O)cc1F [Example 5-FU, 5-Fluorouridine, reference compound] |  |  | 0.61 | 4.96 | dose-efficacy profile (L 1210 leukemia; i.p. once daily, weekly cycles, day 0 (+1 h)-day +41, FIG. 2): very narrow dose-efficacy profile; survival rates on increasing the dose (L 1210 leukemia; i.p., from 2×10/5×0.1 to 2×10/5×0.3 mg kg^-1 day^-1 or even higher doses, FIG. 2): reduced survival rates
CCCCCCCCCCCCSCC(COP(=O)(O)OC[C@H]1O[C@@H](n2cc(F)c(=O)[nH]c2=O)[C@H](O)[C@@H]1O)OCCCCCCCCCC (some centres unmarked) [Example 5-FU-DMDOPE, (5-Fluorouridine) -5'-phosphoric acid (3-dodecylmercapto 2 decyloxy) propyl ester] |  |  | 372 | 1180 | Bone marrow toxicity CFU-E, ratio to 5-FU [1, 7]: 610 ×; less toxic on erythrocyte bone marrow stem cells compared to 5-FU ([1]; CFU-E): 610 times; toxicity on bone marrow cells compared to 5-FU ([1]; in words, CFU-E and CFU-GM): much less toxic on bone marrow cells; Bone marrow toxicity CFU-GM, ratio to 5-FU [2, 7]: 238 ×; less toxic on granulocyte/macrophage bone marrow stem cells compared to 5-FU ([2]; CFU-GM): 238 times; therapeutic index/ratio compared to 5-FU (L 1210 leukemia; concluded from efficacy (FIGS. 1 and 2) and bone marrow toxicity): much higher therapeutic index/ratio; survival time compared to control I and II (L 1210 leukemia; i.p. once daily, weekly cycles, day 0 (+1 h)-day +41, FIG. 1): clear dose-dependent increase in survival time; efficacy compared to 5-FU (L 1210 leukemia; leukemia model, equimolar doses, FIGS. 1 and 2): clearly more effective
CCCCCCCCCCCCSCC(COP(=O)(O)OC[C@H]1O[C@@H](n2cnc3c(S)ncnc32)[C@H](O)[C@@H]1O)OCCCCCCCCCC (stereo partly drawn) [Example 6-MPR-DMDOPE, (6-Mercaptopurine-9-β-D-ribofuranoside)-5'-phosphoric acid (3-dodecylmercapto-2-decyloxy) propyl ester] | 56 | 0.247 |  |  | tolerability by bone marrow stem cells ([1]; in vitro, CFU-E and CFU-GM, compared to Azathioprine, 6-MP, 6-Mercaptopurinriboside, Doxorubicin): much better tolerated by the bone marrow stern cells compared to all other compounds tested
